Results taken from article PMC11089561, “Structural Investigations of Phthalazinone Derivatives as Allosteric Inhibitors of Human DNA Methyltransferase 3A” (ACS Medicinal Chemistry Letters, 2024).

How the values were obtained:
[1] = molecular target: T1, DNMT3A_CD (catalytic domain of DNMT3A) (Homo sapiens, UniProt Q9Y6K1); test: In vitro methylation assay, IC50 determination ([3H]-SAM, poly dI-dC); assay type: biochemical; details: 150 nM DNMT3A, 10 uM SAM, 10 uM poly dI-dC; 1 hour preincubation; Hill slope constrained to -2
T1 construct: The catalytic domain of DNMT3A (residues 634 -912) were used for all experiments; made in house; host or cells: E. coli NiCo21 (DE3) (NEB)
Method: Expression and Purification of DNMT3A_CD
The catalytic domain of DNMT3A (residues 634 -912) were used for all experiments […]
DNMT3A_CD was expressed in NiCo21 (DE3) cells (NEB) using a codon optimized plasmid pET28a-hDNMT3A_CD (∆1-611). Cell cultures were grown in LB medium at 37 °C to an OD600 = 0.8. Cultures were cooled to 25 °C, then expression was induced by the addition of 1 mM IPTG (Gold Biotechnology). Cells were harvested by centrifugation after 5 hours and flash frozen in liquid nitrogen for storage at -80 °C.
Cells were resuspended in lysis buffer containing 50 mM K2HPO4/KH2PO4, 500 mM NaCl, 50 mM imidazole, 10% glycerol [v/v], 1 mM EDTA and 1 mM PMSF at pH 7.8.
Sonication was used for lysis and the supernatant was collected after centrifugation at 18,000 x g for 1 hour. Lysates were applied to an ÄKTA start FPLC system (GE healthcare) and loaded onto a 1 mL HisTrap Excel column (Cytiva). The column was washed with 50 mL of lysis […]
(§1) buffer and eluted with an identical buffer containing a higher imidazole concentration of 500 mM. Eluted protein was desalted with a 5 mL HiTrap Desalting column (Cytiva) and flash frozen in liquid nitrogen for storage at -80 °C. DNMT3A_CD concentration was determined using UV-vis with an extinction coefficient determined by protparam of 38,180 M-1 cm-1 to represent the monomeric state.
(§2) In Vitro Methylation Assays
(§3) Methylation assays were used to determine nanomolar amounts of methylated DNA product. Reactions were carried out in 50 mM K2HPO4/KH2PO4 at pH 7.8, 1 mM EDTA, 1 mM DTT, 0.2 mg/mL BSA, 20 mM NaCl, 150 nM DNMT3A_CD, 10 uM poly dI-dC (Sigma Aldrich), and 10 uM SAM (Sigma Aldrich) unless otherwise stated. The SAM cofactor was diluted with [3H]-SAM from PerkinElmer in 10 mM H2SO4. All inhibitors were dissolved and diluted in DMSO prior to addition to methylation reactions. Reactions with and without […]
All reactions containing inhibitors were preincubated with DNMT3A and inhibitor for 1 hour. Reactions were activated with poly dI-dC to a final volume of 20 uL, then incubated at 37 °C for 1 hour. Reaction aliquots were spotted on Hybond-N+ membranes (GE healthcare), then washed with 50 mM K2HPO4/KH2PO4 at pH 7.8 and ethanol. Membranes were dried and counted using a Hidex LS 300 scintillation counter. […]
Determination of IC50 Value
Percent activity of methylation assays was determined by comparing activities of assays with inhibitor to assays without inhibitor. Sigmoidal dose-response curves of percent activity vs compound concentration were fitted in Prism 10.
All assays were performed in triplicate, with additional repetitions added as necessary. […]
14). Reactions consisted of 150 nM DNMT3A, 10 uM SAM, and 10 uM poly dI -dC. The data

[2] = molecular target: T1, DNMT3A_CD (catalytic domain of DNMT3A); test: Kinetics studies: methylation assays with varied SAM or poly dI-dC, fit to inhibition models; assay type: biochemical; details: for α coefficient from mixed-type inhibition model, varied DNA: poly dI-dC varied 0.15-10 uM, SAM 10 uM; for α coefficient from mixed-type inhibition model, varied DNA / α coefficient from mixed-type inhibition model, varied SAM: α < 1 = preference for enzyme-substrate complex; for Best fit inhibition model: with DNA and SAM varied, R2 comparison and F-test, p-value < 0.0001; for α coefficient from mixed-type inhibition model, varied SAM: SAM varied 0.15-10 uM, poly dI-dC 10 uM
Excerpt: Using methylation assays with and without inhibitor and varied concentrations of DNA or SAM, we generated nonlinear Michaelis–Menten curves with corresponding double-reciprocal plots (Figure S2) and fit them to classical inhibition models. […] By analyzing double-reciprocal plots, this mechanistic model was confirmed because the changes in y-intercept and slope are inconsistent with competitive and uncompetitive forms of inhibition, respectively. […] Furthermore, the selected analogs also bind more tightly to the enzyme–substrate complex than to the free enzyme with both DNA and SAM (Table S2). This preference could be beneficial since DNMT3A bound to DNA is likely the dominant species in a cellular context. […]
as §1, §2, §3
All reactions containing inhibitors were preincubated with DNMT3A and inhibitor for 1 hour. Reactions were activated with poly dI-dC to a final volume of 20 uL, then incubated at 37 °C for 1 hour. Reaction aliquots were spotted on Hybond-N+ membranes (GE healthcare), then washed with 50 mM K2HPO4/KH2PO4 at pH 7.8 and ethanol. Membranes were dried and counted using a Hidex LS 300 scintillation counter.
In vitro methylation assays were performed as described above using two concentrations of inhibitor (0 uM and ~IC50) and varied concentrations of substrate SAM or poly dI-dC while the other substrate is held at a saturating concentration of 10 uM. For the variation of SAM, concentrations of 0.15, 0.25, 0.5, 1, 3 and 10 uM were used, while for the variation of poly dI-dC concentrations of 0.15, 0.25, 0.5, 1, 2.5, and 10 uM were used. Data was fitted globally with Prism 10 and best-fit inhibition models were determined using an F-test (p < 0.0001).
Lineweaver-Burke plots were generated and fit to a linear regression model. Data represent the mean and standard deviation of three independent reactions. […]
Figure S2: Double reciprocal plots for 1a (A, B), 3 (C, D), 4 (E, F), 5 (G, H), and 10 (I, J) with DNA and SAM. The data points represent the mean and standard deviation of three independent reactions. Reactions were done at initial velocity conditions using 150 nM DNMT3A, and varied concentrations of one substrate (0.15 –10 uM) while the other was saturated at 10 uM. Linear fits […]
competitive inhibition and uncompetitive inhibition respectively.
(1 picture or pasted object on this page, not shown here) […]
coefficient is a measure of the inhibitor’s preference for E and ES kinetic species.
Table S1: Determination of best fit inhibition models for 1a, 3, 4, 5, and 10 by R2 comparison […]
Most of the inhibitors have α < 1, where the inhibitor prefers the enzyme-substrate complex. […]

[3] = system: acute myeloid leukemia cell; parameters: method as in PMID 35866897; details: cited from earlier work
DNMT3A = molecular target: DNMT3A; parameters: method as in PMID 33705897; details: with SAM; read-out: Ki with S-adenosyl methionine (SAM, AdoMet); cited from earlier work
[4] = parameters: method as in PMID 26935942; details: versus FDA-approved inhibitors (azacytidine and decitabine); cited from earlier work

T1 sequence (Q9Y6K1 634-912): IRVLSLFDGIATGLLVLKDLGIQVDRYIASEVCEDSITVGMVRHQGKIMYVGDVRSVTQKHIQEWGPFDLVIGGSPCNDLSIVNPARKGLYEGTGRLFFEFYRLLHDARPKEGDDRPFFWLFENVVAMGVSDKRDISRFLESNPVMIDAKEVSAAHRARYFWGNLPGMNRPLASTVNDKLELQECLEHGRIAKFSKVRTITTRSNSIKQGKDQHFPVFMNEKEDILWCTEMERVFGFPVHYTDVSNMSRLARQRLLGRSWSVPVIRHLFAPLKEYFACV

Row | SMILES | IC50 [1] | Best fit inhibition model [2] | other results
1 | c1ccc(OCCCCOc2ccc(-c3nn[nH]n3)cc2)cc1 [Compound 14] | > 100 µM |  | 
2 | COc1ccc(C2=NN(C3CCCCCC3)C(=O)[C@@H]3CC=CC[C@H]23)cc1OCCCCOc1ccc(C(=O)O)cc1 [Compound 3] | 23 µM | mixed-type inhibition model | α coefficient from mixed-type inhibition model, varied DNA [2]: > 1
3 | O=C1[C@@H]2CC=CC[C@@H]2C(c2cccc(OCCCCOc3ccc(-c4nn[nH]n4)cc3)c2)=NN1C1CCCCCC1 [Compound 4] | 10 µM | mixed-type inhibition model | 
4 | O=c1c2ccccc2c(-c2cccc(OCCCCOc3ccc(-c4nn[nH]n4)cc3)c2)nn1C1CCCCCC1 [Compound 13] | 13 µM |  | 
5 | CN1N=C(c2cccc(OCCCCOc3ccc(-c4nn[nH]n4)cc3)c2)[C@H]2CC=CC[C@H]2C1=O [Compound 5] | 41 µM | mixed-type inhibition model | 
6 | COc1ccc(C2=NN(C3CCCCCC3)C(=O)C2(C)C)cc1OCCCCOc1ccc(-c2nnn[nH]2)cc1 [Compound 1b] |  |  | AML cell differentiation [3]: induce acute myeloid leukemia cell differentiation; Ki (DNMT3A): 3.7 to 7.06 µM; Cytotoxicity [4]: significantly less cytotoxic than FDA-approved inhibitors
7 | O=C1[C@@H]2CC=CC[C@@H]2C(c2cccc(OC/C=C/COc3ccc(-c4nn[nH]n4)cc3)c2)=NN1C1CCCCCC1 [Compound 11] | 13 µM |  | 
8 | COc1ccc(C2=NN(C3CCCCCC3)C(=O)[C@@H]3CC=CC[C@H]23)cc1OCCCCOc1ccc(-c2nnn[nH]2)cc1 [Compound 1a] | 14 ± 2 µM | mixed-type inhibition model | AML cell differentiation [3]: induce acute myeloid leukemia cell differentiation; α coefficient from mixed-type inhibition model, varied SAM [2]: < 1; α coefficient from mixed-type inhibition model, varied DNA [2]: < 1; Ki (DNMT3A): 9.16 to 18.9 µM; Cytotoxicity [4]: significantly less cytotoxic than FDA-approved inhibitors
9 | O=C1[C@@H]2CC=CC[C@@H]2C(c2cccc(OCCCCOc3ccc(-c4nn[nH]n4)cc3)c2)=NN1Cc1ccc(F)c(F)c1 [Compound 7] | 18 µM |  | 
10 | O=C1[C@@H]2CC=CC[C@@H]2C(c2cccc(OCCCCCOc3ccc(-c4nn[nH]n4)cc3)c2)=NN1C1CCCCCC1 [Compound 9] | 9 µM |  | 
11 | O=C1[C@@H]2CC=CC[C@@H]2C(c2cccc(OC/C=C\COc3ccc(-c4nn[nH]n4)cc3)c2)=NN1C1CCCCCC1 [Compound 10] | 11 µM | mixed-type inhibition model | α coefficient from mixed-type inhibition model, varied SAM [2]: > 1
12 | COc1ccc(C2=NN(C3CCCCCC3)C(=O)[C@@H]3CC=CC[C@H]23)cc1OCCCCOc1ccc(C#N)cc1 [Compound 2] | > 300 µM |  | 
13 | O=C(COc1cccc(C2=NN(C3CCCCCC3)C(=O)[C@@H]3CC=CC[C@H]23)c1)Nc1ccc(-c2nn[nH]n2)cc1 [Compound 12] | 38 µM |  | 
14 | O=C1[C@@H]2CC=CC[C@@H]2C(c2cccc(OCCCCOc3ccc(-c4nn[nH]n4)cc3)c2)=NN1Cc1ccccc1 [Compound 6] | 13 µM |  | 
15 | O=C1[C@@H]2CC=CC[C@@H]2C(c2cccc(OCCCOc3ccc(-c4nn[nH]n4)cc3)c2)=NN1C1CCCCCC1 [Compound 8] | 11 µM |  | 
